The test system of test [1] is Human immunodeficiency virus. Kind of test: Antiviral activity against HIV infected in human CEM-SS cells. Format: functional, organism-based. The following applies: Human immunodeficiency virus 1, CEM-SS.
Another test has as its system CEM-SS. Kind of test: Cytotoxicity against human CEM-SS cells. Format: cell-based.

SMILES strings stand for the structures. Converted amounts (≈) assume the structure as drawn.

For orientation: EC50 means the concentration that produces a half-maximal response. Low values mean a more potent agent, high ones a less potent agent. Compound `Oc1ccc([C@H]2c3c(O)cc(O)cc3[C@@H]3c4c(cc(O)cc4[C@H]2O)O[C@H]3c2ccc(O)cc2)cc1` [BALANOCARPOL] returned an EC50 in test [1] of 20 µg/mL (≈ 42.5 µM).
As for `Oc1ccc([C@H]2c3c(O)cc(O)cc3[C@@H]3c4c(cc(O)cc4[C@]2(O)[C@@]2(O)c4cc(O)cc5c4[C@@H](c4cc(O)cc(O)c4[C@@H]2c2ccc(O)cc2)[C@H](c2ccc(O)cc2)O5)O[C@H]3c2ccc(O)cc2)cc1` [DIBALANOCARPOL], the EC50 in test [1] was found to be 46 µg/mL (≈ 49 µM).
As usually defined, the IC50 is the point on the concentration scale where inhibition reaches its midpoint. In the case of `Oc1ccc(-c2oc3cc(O)cc4c3c2-c2cc(O)cc(O)c2[C@H](c2ccc(O)cc2)[C@H]4O)cc1` [MALIBATOL A], 13 µg/mL (≈ 27.8 µM) corresponded to half-maximal inhibition with CEM-SS (IC50).
In the test with CEM-SS, `Oc1ccc([C@H]2c3c(O)cc(O)c(O)c3-c3c(-c4ccc(O)c(O)c4)oc4cc(O)cc(c34)[C@@H]2O)cc1` [MALIBATOL B] showed an IC50 of 21 µg/mL (≈ 42 µM).

The record behind these values is ChEMBL document CHEMBL1141735, “HIV-inhibitory and cytotoxic oligostilbenes from the leaves of Hopea malibato” (J Nat Prod, 1998).
